Assay [1] deals with RON (Homo sapiens, UniProt Q04912). The assay is described as follows: Inhibitory activity against RON, TR-FRET kinase assay. It is filed as biochemical. To be noted: RON enzyme. The protocol:
In order to measure the inhibitory activity of each of the compounds of Examples against RON, the IC50 of each of the compounds was measured using a Time-Resolved Fluorescence Energy Transfer Chemistry (TR-FRET).
Specifically, the compound was prepared to a concentration of 1 mM with 100% DMSO and was diluted 10 times in a stepwise manner through 3-fold dilution. 2 ul of the compound diluted in a stepwise manner was added to a 96-well-plate containing 48 ul of a 1× kinase reaction buffer (50 mM HEPES (pH 7.4), 0.01% Tween-20, 5 mM DTT, 0.5 mM Na3VO4, 2 mM EGTA, 10 mM MgCl2).
The RON protein was diluted to a concentration of 49.3 nM with an RON storage buffer (50 mM Tris-HCl (pH 7.5), 150 mM NaCl, 0.5 mM EDTA, 0.02% Triton X-100), and then diluted again to a concentration of 0.4 nM with a 1× kinase reaction buffer. As a substrate cocktail, a RON-specific substrate mixture (40 uM ULight-labeled Poly GT, 100 nM ATP) at a concentration 2 times the final reaction concentration.
Thereafter, a 384-well-plate was prepared, and 2.5 ul of each of the diluted compounds of Examples was added to a corresponding well of experimental group wells, and 2.5 ul of a 4% DMSO solution was dispensed into high control wells and low control wells.
(§1) Thereafter, 2.5 μL of 0.4 nM RON was dispensed into the high control wells and the experimental group wells, and 2.5 μL of a 1× kinase reaction buffer was added to the low control wells, and the RON and the reaction buffer were centrifuged at room temperature for 40 seconds at 1000 RPM, and then incubated at room temperature for 20 to 30 minutes. Then, 5 μL of a substrate cocktail (2×) was dispensed into all wells, centrifuged at room temperature for 40 seconds at 1000 RPM, and then incubated at room temperature for 60 minutes. Thereafter, 5 μL of 30 mM EDTA was added to all wells to terminate the reaction, and then incubated again at room temperature for 5 minutes. Thereafter, 5 μL of a 4× phosphotyrosine antibody (Perkin Elmer) containing europium was added to all wells, and then incubated at room temperature for 60 minutes. After the incubation, the 384-well-plate was read with a Vison plate reader. At this time, the excitation wavelength was 340 nm, and the emission wavelength was 620 nm and 665 nm. The IC50 value of the compound of each Example was derived using the GraphPd Prism7 program.
For orientation: In TR-FRET formats the signal depends on donor and acceptor labels being close together.

Assay [2] has as its target cMET (Homo sapiens, UniProt P08581). The assay is described as follows: Inhibitory activity against MET (cMET), TR-FRET kinase assay. The note with it: cMET enzyme. Type of assay: biochemical. The protocol:
In addition, in order to measure the enzyme activity inhibition for cMET, the evaluation was performed in the same manner as the enzyme activity inhibition measurement experiment for the RON.
Specifically, the compound was prepared to a concentration of 1 mM with 100% DMSO and was diluted 10 times in a stepwise manner through 3-fold dilution. 2 ul of the compound diluted in a stepwise manner was added to a 96-well-plate containing 48 ul of a 1× kinase reaction buffer (50 mM HEPES (pH 7.4), 0.05% BSA, 0.005% Tween-20, 1 mM DTT, 0.5 mM MnCl2, 20 mM MgCl2).
The cMET protein was diluted to a concentration of 263 nM with a cMET storage buffer (50 mM Tris-HCl (pH 7.5), 150 mM NaCl, 0.05% Brij35, 1 mM DTT, 10% Glycerol), and then diluted again to a concentration of 2 nM with a 1× kinase reaction buffer. As a substrate cocktail, a MET-specific substrate mixture (5 uM TK peptide, […]) at a concentration 2 times the final reaction concentration.
Thereafter, a 384-well-plate was prepared, and 2.5 μl of each of the diluted compounds of Examples was added to a corresponding well of experimental group wells, and 2.5 μl of a 4% DMSO solution was dispensed into high control wells and low control wells.
as §1, with “of 2” for “of 0.4”, “nM cMET” for “nM RON”, “of 90” for “of 30”

The values that follow come from patent US20240300944A1, “NOVEL UREA DERIVATIVE COMPOUND AS RON INHIBITOR” (LG CHEM, LTD., priority 2021, published 2024).

Where only a bound is given, the exact number is not on record here.

Sequence of RON (Q04912 25-1400, species assumed): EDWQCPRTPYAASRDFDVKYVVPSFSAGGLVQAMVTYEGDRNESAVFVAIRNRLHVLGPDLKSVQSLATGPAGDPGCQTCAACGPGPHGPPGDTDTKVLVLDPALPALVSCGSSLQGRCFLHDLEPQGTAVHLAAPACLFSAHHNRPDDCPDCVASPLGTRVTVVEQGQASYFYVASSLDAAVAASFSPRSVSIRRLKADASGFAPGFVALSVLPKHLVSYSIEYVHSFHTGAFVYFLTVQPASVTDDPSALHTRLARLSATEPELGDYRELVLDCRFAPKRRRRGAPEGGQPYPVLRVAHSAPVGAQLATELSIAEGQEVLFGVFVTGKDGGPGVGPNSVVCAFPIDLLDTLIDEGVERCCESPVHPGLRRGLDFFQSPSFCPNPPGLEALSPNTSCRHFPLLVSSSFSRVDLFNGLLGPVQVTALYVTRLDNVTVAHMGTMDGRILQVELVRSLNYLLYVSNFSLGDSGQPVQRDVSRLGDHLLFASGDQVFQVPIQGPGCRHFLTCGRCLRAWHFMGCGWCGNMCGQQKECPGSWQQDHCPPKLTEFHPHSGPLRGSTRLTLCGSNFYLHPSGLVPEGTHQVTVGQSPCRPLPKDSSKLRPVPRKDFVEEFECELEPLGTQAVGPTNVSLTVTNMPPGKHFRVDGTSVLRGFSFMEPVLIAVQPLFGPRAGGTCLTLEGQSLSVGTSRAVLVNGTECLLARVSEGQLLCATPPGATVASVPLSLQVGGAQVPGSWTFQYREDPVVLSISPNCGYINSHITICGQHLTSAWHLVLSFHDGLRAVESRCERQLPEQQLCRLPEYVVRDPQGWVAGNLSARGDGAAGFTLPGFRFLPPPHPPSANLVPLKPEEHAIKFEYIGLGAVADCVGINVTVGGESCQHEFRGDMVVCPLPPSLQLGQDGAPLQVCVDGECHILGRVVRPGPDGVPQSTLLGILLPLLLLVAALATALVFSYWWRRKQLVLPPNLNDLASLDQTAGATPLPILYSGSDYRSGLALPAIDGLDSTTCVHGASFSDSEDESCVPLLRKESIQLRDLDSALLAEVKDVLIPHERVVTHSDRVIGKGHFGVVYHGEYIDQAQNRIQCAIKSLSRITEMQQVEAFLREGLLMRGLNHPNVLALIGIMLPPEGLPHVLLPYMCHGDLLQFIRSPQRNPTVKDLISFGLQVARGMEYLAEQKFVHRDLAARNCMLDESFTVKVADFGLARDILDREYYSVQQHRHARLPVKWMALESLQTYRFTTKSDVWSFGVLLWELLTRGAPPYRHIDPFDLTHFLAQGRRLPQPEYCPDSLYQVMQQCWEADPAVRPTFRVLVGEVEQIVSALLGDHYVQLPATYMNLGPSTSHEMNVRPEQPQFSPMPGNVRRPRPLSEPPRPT
Sequence of cMET (P08581 25-1390): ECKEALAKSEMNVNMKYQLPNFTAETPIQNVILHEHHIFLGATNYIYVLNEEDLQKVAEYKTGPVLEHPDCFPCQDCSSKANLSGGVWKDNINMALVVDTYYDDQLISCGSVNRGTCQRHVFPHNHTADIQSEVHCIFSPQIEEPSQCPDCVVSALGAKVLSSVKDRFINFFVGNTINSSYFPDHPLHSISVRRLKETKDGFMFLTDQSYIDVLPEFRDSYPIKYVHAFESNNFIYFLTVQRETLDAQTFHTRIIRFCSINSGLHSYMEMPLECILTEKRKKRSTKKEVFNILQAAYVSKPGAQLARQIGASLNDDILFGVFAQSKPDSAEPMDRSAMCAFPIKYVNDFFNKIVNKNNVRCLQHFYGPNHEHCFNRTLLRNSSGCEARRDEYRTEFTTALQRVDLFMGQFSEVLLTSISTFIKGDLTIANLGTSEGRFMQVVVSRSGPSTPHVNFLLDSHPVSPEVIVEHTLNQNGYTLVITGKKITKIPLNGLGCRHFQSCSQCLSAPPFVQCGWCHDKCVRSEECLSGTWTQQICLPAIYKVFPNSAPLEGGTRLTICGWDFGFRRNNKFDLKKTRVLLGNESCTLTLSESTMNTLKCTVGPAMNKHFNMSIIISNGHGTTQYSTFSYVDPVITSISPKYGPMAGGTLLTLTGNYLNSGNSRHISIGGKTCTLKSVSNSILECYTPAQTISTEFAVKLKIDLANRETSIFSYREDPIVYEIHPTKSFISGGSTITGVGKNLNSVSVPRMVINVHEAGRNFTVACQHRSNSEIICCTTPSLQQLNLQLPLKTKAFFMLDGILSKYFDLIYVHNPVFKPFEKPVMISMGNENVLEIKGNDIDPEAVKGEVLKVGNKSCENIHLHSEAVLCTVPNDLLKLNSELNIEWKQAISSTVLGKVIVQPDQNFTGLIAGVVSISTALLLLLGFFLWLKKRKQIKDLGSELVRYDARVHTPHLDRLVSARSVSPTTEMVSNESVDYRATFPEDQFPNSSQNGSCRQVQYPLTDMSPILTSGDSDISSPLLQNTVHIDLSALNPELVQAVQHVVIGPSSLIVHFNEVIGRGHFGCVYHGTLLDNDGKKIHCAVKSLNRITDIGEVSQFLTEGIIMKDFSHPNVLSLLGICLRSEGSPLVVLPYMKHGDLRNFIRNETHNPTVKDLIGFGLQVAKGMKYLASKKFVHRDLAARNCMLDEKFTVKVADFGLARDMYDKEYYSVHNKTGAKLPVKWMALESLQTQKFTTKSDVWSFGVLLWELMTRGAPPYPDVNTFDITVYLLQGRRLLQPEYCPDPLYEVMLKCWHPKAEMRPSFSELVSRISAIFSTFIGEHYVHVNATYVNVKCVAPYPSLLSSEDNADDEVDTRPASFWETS

On to `O=C(Nc1ccc(Oc2ccnc3[nH]c(=O)[nH]c23)c(F)c1)c1ncn(-c2ccccc2)c1C(F)(F)F` [Example 1, N-(3-fluoro-4-((2-oxo-2,3-dihydro-1H-imidazo[4,5-b]pyridine-7-yl)oxy)phenyl)-1-phenyl-5-(trifluoromethyl)-1H-imidazole-4-carboxamide], for which the values for the IC50 in assay [1] and in assay [2] were below 50 nM and above 5000 nM, respectively.
Regarding `O=C(Nc1ccc(Oc2ccnc3[nH]c(=O)[nH]c23)c(F)c1)c1cnn(-c2ccccc2)c1C(F)(F)F` [Example 2, N-(3-fluoro-4-((2-oxo-2,3-dihydro-1H-imidazo[4,5-b]pyridine-7-yl)oxy)phenyl)-1-phenyl-5-(trifluoromethyl)-1H-pyrazole-4-carboxamide], the IC50 (in general, the concentration that gives 50% inhibition) in assay [1] is below 50 nM; in assay [2], above 5000 nM.
In the case of `CCn1c(=O)[nH]c2nccc(Oc3ccc(NC(=O)c4ncn(-c5ccccc5)c4C(F)(F)F)cc3F)c21` [Example 3, N-(4-((1-ethyl-2-oxo-2,3-dihydro-1H-imidazo[4,5-b]pyridine-7-yl)oxy)-3-fluorophenyl)-1-phenyl-5-(trifluoromethyl)-1H-imidazole-4-carboxamide], the values for the IC50 in assay [1] and in assay [2] were below 50 nM and above 5000 nM, respectively.
With `CCn1c(=O)[nH]c2nccc(Oc3ccc(NC(=O)c4cnn(-c5ccccc5)c4C(F)(F)F)cc3F)c21` [Example 4, N-(4-((1-ethyl-2-oxo-2,3-dihydro-1H-imidazo[4,5-b]pyridine-7-yl)oxy)-3-fluorophenyl)-1-phenyl-5-(trifluoromethyl)-1H-pyrazole-4-carboxamide], the values for the IC50 in assay [1] and in assay [2] were below 50 nM and above 5000 nM, respectively.
Regarding `Cn1c(=O)[nH]c2nccc(Oc3ccc(NC(=O)c4ncn(-c5ccccc5)c4C(F)(F)F)cc3F)c21` [Example 5, N-(3-fluoro-4-((1-methyl-2-oxo-2,3-dihydro-1H-imidazo[4,5-b]pyridine-7-yl)oxy)phenyl)-1-phenyl-5-(trifluoromethyl)-1H-imidazole-4-carboxamide], the IC50 in assay [1] was below 50 nM; in assay [2], above 5000 nM.
As to `Cn1c(=O)[nH]c2nccc(Oc3ccc(NC(=O)c4cnn(-c5ccccc5)c4C(F)(F)F)cc3F)c21` [Example 6, N-(3-fluoro-4-((1-methyl-2-oxo-2,3-dihydro-1H-imidazo[4,5-b]pyridine-7-yl)oxy)phenyl)-1-phenyl-5-(trifluoromethyl)-1H-pyrazole-4-carboxamide], the results for the IC50 in assay [1] and in assay [2] were below 50 nM and above 5000 nM, respectively.
Turning to `CC(C)n1c(=O)[nH]c2nccc(Oc3ccc(NC(=O)c4cnn(-c5ccccc5)c4C(F)(F)F)cc3F)c21` [Example 7, N-(3-fluoro-4-((1-isopropyl-2-oxo-2,3-dihydro-1H-imidazo[4,5-b]pyridine-7-yl)oxy)phenyl)-1-phenyl-5-(trifluoromethyl)-1H-pyrazole-4-carboxamide], the IC50 in assay [1] was below 50 nM; in assay [2], 500 to 5000 nM.
Regarding `CC(C)n1c(=O)[nH]c2nccc(Oc3ccc(NC(=O)c4ncn(-c5ccccc5)c4C(F)(F)F)cc3F)c21` [Example 8, N-(3-fluoro-4-((1-isopropyl-2-oxo-2,3-dihydro-1H-imidazo[4,5-b]pyridine-7-yl)oxy)phenyl)-1-phenyl-5-(trifluoromethyl)-1H-imidazole-4-carboxamide], the IC50 is below 50 nM in assay [1] and above 5000 nM in assay [2].
For `CCc1c(C(=O)Nc2ccc(Oc3ccnc4[nH]c(=O)[nH]c34)c(F)c2)cnn1-c1ccccc1` [Example 9, 5-ethyl-N-(3-fluoro-4-((2-oxo-2,3-dihydro-1H-imidazo[4,5-b]pyridine-7-yl)oxy)phenyl)-1-phenyl-1H-pyrazole-4-carboxamide], the 50% inhibitory concentration (IC50) was 50 to 500 nM in assay [1] and above 5000 nM in assay [2].
`CCc1c(C(=O)Nc2ccc(Oc3ccnc4[nH]c(=O)n(C(C)C)c34)c(F)c2)cnn1-c1ccccc1` [Example 10, 5-ethyl-N-(3-fluoro-4-((1-isopropyl-2-oxo-2,3-dihydro-1H-imidazo[4,5-b]pyridine-7-yl)oxy)phenyl)-1-phenyl-1H-pyrazole-4-carboxamide]: the IC50 in assay [1] was below 50 nM; in assay [2], 500 to 5000 nM.
Regarding `O=C(Nc1ccc(Oc2ccnc3[nH]c(=O)n(C4CCOCC4)c23)c(F)c1)c1ncn(-c2ccccc2)c1C(F)(F)F` [Example 11, N-(3-fluoro-4-((2-oxo-1-(tetrahydro-2H-pyran-4-yl)-2,3-dihydro-1H-imidazo[4,5-b]pyridine-7-yl)oxy)phenyl)-1-phenyl-5-(trifluoromethyl)-1H-imidazole-4-carboxamide], the IC50 was below 50 nM in assay [1] and above 5000 nM in assay [2].
For `Cc1nn(-c2ccccc2)c(C)c1C(=O)Nc1ccc(Oc2ccnc3[nH]c(=O)[nH]c23)c(F)c1` [Example 12, N-(3-fluoro-4-((2-oxo-2,3-dihydro-1H-imidazo[4,5-b]pyridine-7-yl)oxy)phenyl)-3,5-dimethyl-1-phenyl-1H-pyrazole-4-carboxamide], the IC50 in assay [1] is 50 to 500 nM; in assay [2], above 5000 nM.
Regarding `Cc1nn(-c2ccccc2)c(C)c1C(=O)Nc1ccc(Oc2ccnc3[nH]c(=O)n(C(C)C)c23)c(F)c1` [Example 13, N-(3-fluoro-4-((1-isopropyl-2-oxo-2,3-dihydro-1H-imidazo[4,5-b]pyridine-7-yl)oxy)phenyl)-3,5-dimethyl-1-phenyl-1H-pyrazole-4-carboxamide], the IC50 in assay [1] was below 50 nM; in assay [2], 50 to 500 nM.
Regarding `Cc1c(C(=O)Nc2ccc(Oc3ccnc4[nH]c(=O)n(C(C)C)c34)c(F)c2)cnn1-c1ccccc1` [Example 14, N-(3-fluoro-4-((1-isopropyl-2-oxo-2,3-dihydro-1H-imidazo[4,5-b]pyridine-7-yl)oxy)phenyl)-5-methyl-1-phenyl-1H-pyrazole-4-carboxamide], the IC50 in assay [1] is below 50 nM; in assay [2] it was 500 to 5000 nM.
With `CC(C)n1c(=O)[nH]c2nccc(Oc3ccc(NC(=O)c4cnc(-c5ccccc5)s4)cc3F)c21` [Example 15, N-(3-fluoro-4-((1-isopropyl-2-oxo-2,3-dihydro-1H-imidazo[4,5-b]pyridine-7-yl)oxy)phenyl)-2-phenylthiazole-5-carboxamide], the IC50 in assay [1] is 50 to 500 nM; in assay [2] it was above 5000 nM.
The corresponding values for `CC(C)n1c(=O)[nH]c2nccc(Oc3ccc(NC(=O)c4ncc(-c5ccccc5)s4)cc3F)c21` [Example 16, N-(3-fluoro-4-((1-isopropyl-2-oxo-2,3-dihydro-1H-imidazo[4,5-b]pyridine-7-yl)oxy)phenyl)-5-phenylthiazole-2-carboxamide] are 50 to 500 nM and above 5000 nM.
Take `Cc1ccc(-n2ncc(C(=O)Nc3ccc(Oc4ccnc5[nH]c(=O)n(C(C)C)c45)c(F)c3)c2C(F)(F)F)cc1` [Example 17, N-(3-fluoro-4-((1-isopropyl-2-oxo-2,3-dihydro-1H-imidazo[4,5-b]pyridine-7-yl)oxy)phenyl)-1-(p-tolyl)-5-(trifluoromethyl)-1H-pyrazole-4-carboxamide]: the values for the IC50 in assay [1] and in assay [2] were 50 to 500 nM and above 5000 nM, respectively.
